Results reported in paper PMC9920986 (Molecules, 2023).
Like-named read-outs stand apart in the source and are kept apart here.

Assays:
[1] = molecular target: T1, human recombinant NRH:quinone oxidoreductase (NQO2) (Homo sapiens, UniProt P16083); experiment: biochemical; details: for inhibition at 10 µM: read-out: NQO2 Inhibition, %
T1 construct: purchased Sigma Q0380
T1 sequence (P16083 1-231): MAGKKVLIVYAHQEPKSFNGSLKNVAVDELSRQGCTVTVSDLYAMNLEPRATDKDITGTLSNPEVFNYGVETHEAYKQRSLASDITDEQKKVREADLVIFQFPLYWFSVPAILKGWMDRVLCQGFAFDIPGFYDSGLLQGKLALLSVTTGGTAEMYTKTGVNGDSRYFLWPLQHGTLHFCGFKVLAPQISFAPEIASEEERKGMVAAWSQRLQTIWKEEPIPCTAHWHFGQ
Description: The inhibition activity of all synthesized compounds at a concentration of 10 µM was preliminarily tested in vitro using human recombinant NRH:quinone oxidoreductase (NQO2).
The activity of recombinant human NQO2 (Sigma #Q0380, St. Louis, […], USA) was evaluated kinetically using menadione and N-benzyl-dihydronicotinamide (BNAH) as the substrate and co-substrate, respectively. All reagents and test compounds were dissolved in 50 mM Hepes-KOH (pH 7.4) containing 1 mM of β-octyl-D-glucopyranoside, 0.1 mg/mL BSA and 1 μM FAD. […] The solutions of the test compounds were pre-incubated for 5 min with 50 μL of human recombinant NQO2 (final concentration 42 ng/mL). Then, 25 μL of menadione was introduced at a final concentration of 100 μM. The reaction was started with 25 μL of 100 μM BNAH. The fluorescence of the co-substrate BNAH was followed at wavelengths of 370/440 nm at 37 °C using an Infinite M200 Pro microplate reader (Tecan, Grödig, Austria). The fluorescence data was fit according to a one-phase decay nonlinear regression to obtain slope values with Prism 8.0 (GraphPad Inc., San Diego, CA, USA). The activity in sample wells were normalized against negative control and enzyme-blank samples.

[2] = Antiproliferative assay (MTT colorimetric test, 72 h); assay type: cell-based; details: human, n.a. = not active, read-out: A549, CC50
From the text: The cytotoxicity of the synthesized oxindoles was studied using the A549 cell line in which the levels of NQO2 are increased (Table 4). […] The cytotoxicity of the compounds may be due to the inhibition of other enzymes associated with the activation of apoptosis in cancer cells, for example GSK3b or tyrosine kinases, or with the general non-specific toxicity of these compounds. Thus, the influence of NQO2 on A549 cell viability has not been established.
The A549 cells were maintained in F12-K (Gibco, Paisley, UK) supplemented with 10% fetal bovine serum (FBS, Gibco, UK), penicillin (100 UI mL^−1), streptomycin (100 µg mL^−1) and GlutaMax (2 mM, Gibco, UK). All cells line were cultured under a humidified atmosphere of 95% air/5% CO2 at 37 °C. Subconfluent monolayers, in the log growth phase, were harvested by a brief treatment with TrypLE Express solution (Gibco, UK) in phosphate-buffered saline (PBS, Capricorn Scientific, Ebsdorfergrund, Germany) and washed three times in serum-free PBS. The number of viable cells was determined by trypan blue exclusion.
The effects of the synthesized compounds on cell viability were determined using the MTT colorimetric test. All examined cells were diluted with the growth medium to 3.5 × 10^4 cells per mL and the aliquots (7 × 10^3 cells per 200 μL) were placed in individual wells in 96-multiplates (Eppendorf, Germany) and incubated for 24 h. […] After incubation, the cells were then treated with 40 μL MTT solution (3-(4,5-dimethylthiazol-2-yl)-2,5-diphenyltetrazolium bromide, 5 mg mL^−1 in PBS) and incubated for 4 h. After an additional 4 h incubation, the medium with MTT was removed and DMSO (150 μL) was added to dissolve the formazan crystals. The plates were shaken for 10 min. The optical density of each well was determined at 560 nm using a microplate reader GloMax Multi+ (Promega, Madison, WI, USA). Each of the tested compounds was evaluated for cytotoxicity in three separate experiments.

[3] = recombinant human NQO2, 100 μM menadione, 100 μM BNAH, read-out: NQO2 IC50 ± SEM

O=C1Nc2ccc(NC(=O)c3ccccc3)cc2C1=Cc1ccc([N+](=O)[O-])cc1 (mixture of isomers) [Compound 29, 5-benzoylamino-3-((4-nitrophenyl)methylene)-2-oxindole]
IC50 [1]: > 50 µM

CCOc1ccc(/C=C2/C(=O)Nc3ccccc32)cc1 [Compound 22, (E)-3-(4-Ethoxybenzylidene)-2-oxindole]
IC50 [1, 3]: > 50 µM

O=C1Nc2ccccc2C1=Cc1ccc(O)cc1 [Compound 14, 3-(4-hydroxybenzylidene)-2-oxindole]
IC50 [1]: > 50 µM | CC50 at 72 h [2]: 80.9 ± 12.2 µM

O=C1Nc2ccccc2C1=Cc1ccncc1 [Compound 10, 3-(4-pyridinylmethylidene)-2-oxindole]
IC50 [1, 3]: > 50 µM | CC50 at 72 h [2]: 80.3 ± 9.87 µM

CC(=O)Nc1ccc2c(c1)C(=Cc1ccccn1)C(=O)N2 [Compound 5, (E,Z)-3-(2-Pyridinylmethylidene)-5-acetamido-2-oxindole]
IC50 [1]: 41.1 ± 2.44 µM | CC50 at 72 h [2]: 136 µM

CN1C(=O)C(=Cc2ccccn2)c2ccccc21 [Compound 2, N-methyl-3-((pyridin-2-yl)methylene)-2-oxindole]
IC50 [1]: 16.78 ± 0.09 µM

O=C1Nc2ccc([N+](=O)[O-])cc2C1=Cc1cccnc1 [Compound 9, 5-nitro-3-(3-pyridinylmethylidene)-2-oxidole]
IC50 [1]: > 50 µM | CC50 at 72 h [2]: 429 ± 24 µM

O=c1c(O)c(-c2ccc(O)c(O)c2)oc2cc(O)cc(O)c12 [Quercetin, reference compound]
IC50 [1, 3]: 0.08 ± 0.02 µM

COC(=O)Nc1ccc2c(c1)C(=Cc1ccc(Br)cc1)C(=O)N2 [Compound 32, 3-(4-bromobenzylidene)-5-(methoxycarbonylamino)-2-oxindole]
IC50 [1]: 0.61 ± 0.03 µM

O=C1Nc2ccc(Br)cc2C1=Cc1ccncc1 [Compound 11, 5-bromo-3-(4-pyridinylmethylidene)-2-oxindole]
inhibition at 10 µM [1]: 41.9% | CC50 at 72 h [2]: 22.3 ± 1.42 µM

CN(C)c1ccc(C=C2C(=O)Nc3ccccc32)cc1 [Compound 30, (E,Z)-3-(4-Dimethylaminobenzylidene)-2-oxindole]
IC50 [1]: > 50 µM

Cc1nn(-c2ccccc2)c(C)c1C=C1C(=O)Nc2ccccc21 [Compound 44, 3-((3,5-dimethyl-1-phenyl-1H-pyrazol-4-yl)methylene)-2-oxindole]
inhibition at 10 µM [1]: 43.6%

COc1cc(C=C2C(=O)Nc3ccc(NC(=O)c4ccco4)cc32)cc(OC)c1OC [Compound 25, 3-(3,4,5-trimethoxybenzylidene)-5-furoylamino-2-oxindole]
IC50 [1]: 0.66 ± 0.02 µM | CC50 at 72 h [2]: 201 ± 22.7 µM

COc1ccc(C=C2C(=O)Nc3ccc(NC(=O)c4ccccc4)cc32)cc1 [Compound 21, (E,Z)-3-(4-Methoxybenzylidene)-5-benzoylamino-2-oxindole]
IC50 [1, 3]: > 50 µM | CC50 at 72 h [2]: 42.3 ± 8.3 µM

O=C1Nc2ccc(Br)cc2C1=Cc1ccc(Br)cc1 (mixture of isomers) [Compound 31, 3-(4-bromobenzylidene)-5-bromo-2-oxindole]
inhibition at 10 µM [1]: 68.6% | CC50 at 72 h [2]: 242 ± 3.19 µM

O=C1Nc2ccccc2/C1=C\c1ccccn1 [Compound 1, (E)-3-(2-pyridinylmethylidene)-2-oxindole]
IC50 [1]: > 50 µM | CC50 at 72 h [2]: 48 ± 4.42 µM

O=C1Nc2ccccc2C1=Cc1cccs1 [Compound 37, 3-(2-thienylmethylidene)-2-oxindole]
inhibition at 10 µM [1]: 38.1% | CC50 at 72 h [2]: 491 ± 19.9 µM

Cc1ccc(C(=O)CC2(O)C(=O)Nc3ccc(Br)cc32)cc1 (stereo not shown) [Compound 49, 3-hydroxy-5-bromo-3-[2-(4-methylphenyl)-2-oxoethyl]-2-oxindole]
IC50 [1, 3]: > 50 µM

O=C1Nc2ccccc2C1=Cc1ccco1 [Compound 34, 3-(2-furylmethylidene)-2-oxindole]
inhibition at 10 µM [1]: 59.9% | CC50 at 72 h [2]: 595 ± 25.4 µM

O=C1Nc2ccc(NC(=O)c3ccco3)cc2C1=Cc1ccc(O)cc1 [Compound 18, 3-(4-hydroxybenzylidene)-5-furoylamino-2-oxindole]
IC50 [1, 3]: 0.37 ± 0.02 µM | CC50 at 72 h [2]: 146 ± 11.3 µM

O=C1Nc2ccc(Br)cc2C1=Cc1cccs1 [Compound 38, 5-bromo-3-(2-thienylmethylidene)-2-oxindole]
IC50 [1]: > 50 µM | CC50 at 72 h [2]: 427 ± 6.2 µM

CC(=O)Nc1ccc2c(c1)C(=Cc1cccc(O)c1)C(=O)N2 [Compound 13, 3-(3-hydroxybenzylidene)-5-acetylamino-2-oxindole]
IC50 [1]: 0.64 ± 0.04 µM | CC50 at 72 h [2]: 176 ± 4.76 µM

Nc1ccc(CC2C(=O)Nc3ccccc32)cc1 (stereo not shown) [Compound 46, 3-(4-aminobenzyl)-2-oxindole]
IC50 [1]: > 50 µM

Cc1n[nH]c(C)c1C=C1C(=O)Nc2ccccc21 [Compound 42, 3-((3,5-dimethyl-1H-pyrazol-4-yl)methylene)-2-oxindole]
inhibition at 10 µM [1]: 54.4%

Nc1ccc2c(c1)C(Cc1ccccn1)C(=O)N2 (stereo not shown) [Compound 47, 3-(pyridin-2-ylmethyl)-5-amino-2-oxindole]
IC50 [1, 3]: > 50 µM

Cc1ccc(C(=O)CC2(O)C(=O)Nc3ccc(NC(=O)c4ccco4)cc32)cc1 (stereo not shown) [Compound 51, 3-hydroxy-5-(2-furoylamino)-3-[2-(4-methylphenyl)-2-oxoethyl]-2-oxindole]
IC50 [1]: > 50 µM

O=C1Nc2ccc([N+](=O)[O-])cc2C1=Cc1ccccn1 [Compound 4, 5-nitro-3-(2-pyridinylmethylidene)-2-oxindole]
IC50 [1]: > 50 µM

CCOC(=O)c1[nH]ncc1C=C1C(=O)Nc2ccccc21 [Compound 39, 3-((5-ethoxycarbonyl-1H-pyrazol-4-yl)methylene)-2-oxindole]
CC50 at 72 h [2]: 231 µM

O=C1Nc2ccc([N+](=O)[O-])cc2C1=Cc1ccncc1 [Compound 12, 5-nitro-3-(4-pyridinylmethylidene)-2-oxindole]
IC50 [1, 3]: > 50 µM

CC(=O)Nc1ccc2c(c1)C(=Cc1ccc(O)cc1)C(=O)N2 [Compound 16, (E,Z)-3-(4-Hydroxybenzylidene)-5-acetamido-2-oxindole]
IC50 [1, 3]: 0.99 ± 0.03 µM

CCOC(=O)c1[nH]ncc1C=C1C(=O)Nc2ccc([N+](=O)[O-])cc21 [Compound 40, 3-((5-ethoxycarbonyl-1H-pyrazol-4-yl)methylene)-5-nitro-2-oxindole]
IC50 [1]: 1.88 ± 0.08 µM

COc1cc(C=C2C(=O)Nc3ccc(NC(=O)c4ccccc4)cc32)cc(OC)c1O [Compound 26, (E,Z)-3-(3,5-Dimethoxy-4-hydroxybenzylidene)-5-benzoylamino-2-oxindole]
inhibition at 10 µM [1]: 40.5%

CN1C(=O)C(=Cc2ccc(O)cc2)c2ccccc21 [Compound 15, 3-(4-hydroxybenzylidene)-N-methyl-2-oxindole]
IC50 [1, 3]: 0.62 ± 0.04 µM

O=C1Nc2ccccc2C1=Cc1ccc([N+](=O)[O-])cc1 [Compound 27, 3-((4-nitrophenyl)methylene)-2-oxindole]
IC50 [1]: > 50 µM

COC(=O)Nc1ccc2c(c1)C(=Cc1ccc([N+](=O)[O-])cc1)C(=O)N2 [Compound 28, 3-(4-nitrobenzylidene)-5-(methoxycarbonylamino)-2-oxindole]
inhibition at 10 µM [1]: 74%

COC(=O)CCn1cc(C=C2C(=O)Nc3ccccc32)cn1 [Compound 45, (E,Z)-3-(1-[2-(Methoxycarbonyl)ethyl]-1H-pyrazol-4-ylmethylidene)-2-oxindole]
IC50 [1]: > 50 µM

COc1ccc2c(c1)C(O)(CC(=O)c1ccc(C)cc1)C(=O)N2 (stereo not shown) [Compound 48, 3-hydroxy-5-methoxy-3-[2-(4-methylphenyl)-2-oxoethyl]-2-oxindole]
IC50 [1, 3]: > 50 µM

Cn1cc(C=C2C(=O)Nc3ccccc32)cn1 [Compound 41, 3-((1-methyl-1H-pyrazol-4-yl)methylene)-2-oxindole]
IC50 [1]: 9.4 ± 0.12 µM
